According to patent US20130230543A1, “ENGINEERED POLYPEPTIDE CONJUGATES AND METHODS FOR MAKING THEREOF USING […]” (priority 2010, published 2013):
Where two headings read alike, the source gives them in different places.

Experiments:
Type in all cases: cell-based
[1] = tested on: SW620 cells; assay: In vitro cytotoxicity assay, CellTiter-Glo, 96 hours after treatment, target non-expressing cells; conditions: read-out: SW620 Antibody IC50
Experimental: (§1) In vitro cytotoxicity assays were carried out using various antibodies, payloads (i.e., agent moieties), and amine donor units. For mAb2 (a chimeric IgG1 antibody), target expressing (A431, OVCAR3, BxPC3 and HT-29) or non-expressing (SW620) cells were seeded on white walled clear bottom plates at 2000 cells/well for 24 hours before treatment. […] Cell viability was determined by CellTiter-Glo® Luminescent Cell Viability Assay 96 (Promega, Madison Wis.) 96 hours after treatment. […] IC50 was calculated by Prism software.

[2] = tested on: A431 cells; assay: In vitro cytotoxicity assay, CellTiter-Glo, 96 hours after treatment (mAb2 conjugates and free compounds); conditions: Homo sapiens, A-431, 96 h, read-out: A431 Antibody IC50 (nM)
Experimental: as §1

[3] = tested on: HT-29 cells; assay: as above; conditions: Homo sapiens, HT-29, target expressing, column also holds free compounds, read-out: HT-29 Antibody IC50
Experimental: as §1

[4] = tested on: BxPC3 cells; assay: as above; conditions: BxPC3, target expressing, column also holds free compounds, read-out: BxPC3 Antibody IC50
Experimental: as §1

## CO[C@H]1/C=C\C=C(/C)C(=O)NC2=CC(=O)C(NCCCCNC(=O)[C@H](CCCCN)NC(C)=O)=C(C[C@@H](C)C[C@H](OC)[C@H](O)[C@@H](C)/C=C(\C)[C@@H]1OC(N)=O)C2=O [Sample 26, AcLys-Putrescinyl-Geldanamycin]
[1]; Homo sapiens, SW-620, values only for free compounds
  IC50: > 1 µM
[2]
  IC50: > 1000 nM

## CC[C@H](C)[C@@H](C(CC(=O)N1CCCC1C(OC)[C@@H](C)C(=O)NC(Cc1ccccc1)c1nccs1)OC)N(C)C(=O)C(NC(=O)[C@H](C(C)C)N(C)C(=O)CNC(=O)C(C)CCCCN)C(C)C (stereo partly drawn) [Sample 29, AcLysGly-MMAD]
[3]
  IC50: 0.00514 µM
[2]
  IC50: 8.42 nM

## VC-PABC-MMAF [Sample 24]
[1]; values only for free compounds
  IC50: 0.483 µM
[4]
  IC50: 0.427 µM
